Data: the NIST ThermoML archive (doi:10.1016/j.jct.2017.07.011)

Assay: xn = mol fraction of the nth substance listed
Settings: 100 kPa, Liquid, Vibrating tube method

CCC(C)(C)O [2-methylbutan-2-ol] + O
mass density [kg/m3]
Settings | x1 = 0.00122 | x1 = 0.00255 | x1 = 0.00412 | x1 = 0.00507 | x1 = 0.00607 | x1 = 0.0079 | x1 = 0.00994 | x1 = 0.01252 | x1 = 0.01488 | x1 = 1
273.65 K | 999.033 | 998.16 | 997.224 | 996.687 | 996.151 | 995.216 | 994.277 | 993.23 | 992.364 | 826.7
274.15 K | 999.058 | 998.181 | 997.247 | 996.703 | 996.17 | 995.235 | 994.284 | 993.232 | 992.356 | 826.3
274.65 K | 999.08 | 998.206 | 997.266 | 996.721 | 996.184 | 995.25 | 994.296 | 993.233 | 992.353 | 825.8
275.15 K | 999.099 | 998.222 | 997.286 | 996.74 | 996.2 | 995.262 | 994.3 | 993.231 | 992.341 | 825.4
275.65 K | 999.114 | 998.237 | 997.295 | 996.749 | 996.207 | 995.267 | 994.301 | 993.227 | 992.328 | 824.9
276.15 K | 999.13 | 998.247 | 997.305 | 996.76 | 996.213 | 995.266 | 994.297 | 993.215 | 992.313 | 824.5
276.65 K | 999.132 | 998.253 | 997.309 | 996.765 | 996.216 | 995.269 | 994.293 | 993.203 | 992.291 | 824
277.15 K | 999.134 | 998.251 | 997.307 | 996.759 | 996.215 | 995.258 | 994.279 | 993.181 | 992.265 | 823.5
277.65 K | 999.129 | 998.246 | 997.299 | 996.748 | 996.2 | 995.243 | 994.261 | 993.157 | 992.23 | 823.1
278.15 K | 999.126 | 998.235 | 997.295 | 996.741 | 996.193 | 995.233 | 994.246 | 993.13 | 992.197 | 822.6
278.65 K | 999.113 | 998.23 | 997.279 | 996.728 | 996.177 | 995.217 | 994.22 | 993.102 | 992.159 | 822.2
279.15 K | 999.102 | 998.216 | 997.265 | 996.713 | 996.158 | 995.193 | 994.199 | 993.072 | 992.123 | 821.7
279.65 K | 999.075 | 998.186 | 997.235 | 996.681 | 996.124 | 995.158 | 994.162 | 993.023 | 992.067 | 821.3
280.15 K | 999.056 | 998.17 | 997.213 | 996.659 | 996.101 | 995.132 | 994.13 | 992.984 | 992.025 | 820.8
280.65 K | 999.032 | 998.146 | 997.189 | 996.631 | 996.074 | 995.095 | 994.093 | 992.943 | 991.972 | 820.3
281.15 K | 999.006 | 998.115 | 997.154 | 996.599 | 996.039 | 995.06 | 994.049 | 992.894 | 991.918 | 819.9
281.65 K | 998.97 | 998.079 | 997.123 | 996.561 | 996 | 995.021 | 994.007 | 992.846 | 991.86 | 819.4
282.15 K | 998.939 | 998.044 | 997.086 | 996.522 | 995.962 | 994.976 | 993.958 | 992.79 | 991.8 | 819
